The text below walks through data of patent publication US6054429A (priority 1996, dated 2000).

In this test the test system is formalin flinch response in rats. The following applies: rat, in vivo.

On to `COCCOC(=O)C1=C(C)NC(C)=C(C(=O)OC(C)C)C1c1cccc([N+](=O)[O-])c1` (centres unmarked) [nimodipine], for which the “effect on Phase 1 response (in words)” value was “without effect” and the “effect on Phase 2 response (in words)” value was “without effect”.
Take `COc1ccc(CCN(C)CCCC(C#N)(c2ccc(OC)c(OC)c2)C(C)C)cc1OC` (centres unmarked) [verapamil]: the “effect on Phase 1 response (in words)” value is listed as “without effect” and the “effect on Phase 2 response (in words)” value is on record as “without effect”.
On to `COC(=O)C1=C(C)NC(C)=C(C(=O)OC)C1c1ccccc1[N+](=O)[O-]` [nifedipine], for which the “effect on Phase 1 response (in words)” value is listed as “without effect” and the “effect on Phase 2 response (in words)” value is on record as “without effect”.
`COc1ccc([C@@H]2Sc3ccccc3N(CCN(C)C)C(=O)[C@@H]2OC(C)=O)cc1` [diltiazem]: the “effect on Phase 1 response (in words)” value was “without effect” and the “effect on Phase 2 response (in words)” value is listed as “without effect”.
